Where two headings read alike, the source gives them in different places.
System: Fusarium graminearum in wheat
Assay type: in vivo
[1] = Trial 1, dosage mL/Ha: benzovindiflupyr 200, phenamacril 1500, combination 200 + 1500
[2] = Trial 2, dosage mL/Ha: benzovindiflupyr 200, phenamacril 1500, combination 200 + 1500
[3] = Trial 3, dosage mL/Ha: benzovindiflupyr 200, phenamacril 1500, combination 150 + 1250
[4] = Trial 4, dosage mL/Ha: benzovindiflupyr 200, phenamacril 1500, combination 150 + 1250

Cn1cc(C(=O)Nc2cccc3c2[C@@H]2CC[C@H]3C2=C(Cl)Cl)c(C(F)F)n1 (racemic) [Benzovindiflupyr, N-[(1RS,4SR)-9-(dichloromethylene)-1,2,3,4-tetrahydro-1,4-methanonaphthalen-5-yl]-3-(difluoromethyl)-1-methylpyrazole-4-carboxamide]
27%: % disease control of Fusarium graminearum in wheat at 3DAA, Actual [1] | % disease control of Fusarium graminearum in wheat at 7DAA, Actual [2] | % disease control of Fusarium graminearum in wheat at 3DAA, Actual [3] | % disease control of Fusarium graminearum in wheat at 7DAA, Actual [4]

CCOC(=O)C(C#N)=C(N)c1ccccc1 [Phenamacril, ethyl (2EZ)-3-amino-2-cyano-3-phenylacrylate]
83.5%: % disease control of Fusarium graminearum in wheat at 3DAA, Actual [1] | % disease control of Fusarium graminearum in wheat at 7DAA, Actual [2] | % disease control of Fusarium graminearum in wheat at 3DAA, Actual [3] | % disease control of Fusarium graminearum in wheat at 7DAA, Actual [4]

From patent US20210137119A1 (priority 2017, published 2021)
